From ChEMBL document CHEMBL4665840, “New antibacterial cadiolide analogues active against antibiotic-resistant strains” (Bioorg Med Chem Lett, 2020)
Values after ≈ are worked out from the molar mass of the structure shown.

Key:
Staphylococcus aureus [1] = assay: Antibacterial activity against Staphylococcus aureus EMRSA17; format: functional
Enterococcus faecalis [2] = assay: Antibacterial activity against vancomycin-resistant Enterococcus faecalis; format: functional
Micrococcus luteus = assay: Antibacterial activity against Micrococcus luteus; format: functional
Enterococcus faecalis [3] = assay: Antibacterial activity against Enterococcus faecalis NCTC12697; format: functional
Bacillus cereus = assay: Antibacterial activity against Bacillus cereus; format: functional
Bacillus subtilis = assay: Antibacterial activity against Bacillus subtilis; format: functional
Staphylococcus aureus [4] = assay: Antibacterial activity against Staphylococcus aureus NCTC12493
HaCaT [5] = assay: Cytotoxicity against human HaCaT cells at 160 ug/ml incubated for 24 hrs by LDH release assay; format: cell-based; conditions: dose 160 µg/ml
HaCaT [6] = assay: Cytotoxicity against human HaCaT cells at 160 ug/ml incubated for 24 hrs by LDH release assay (reference value: 23.7 +/- 1.4%); format: cell-based; conditions: at 160 µg/mL

| Compound | MIC (Staphylococcus aureus [1]) [µg/mL] | MIC (Enterococcus faecalis [2]) [µg/mL] | MIC (Micrococcus luteus) [µg/mL] | MIC (Enterococcus faecalis [3]) [µg/mL] | MIC (Bacillus cereus) [µg/mL] | MIC (Bacillus subtilis) [µg/mL] | MIC (Staphylococcus aureus [4]) [µg/mL] | Activity (HaCaT [5]) | Activity (HaCaT [6]) [%] |
| --- | --- | --- | --- | --- | --- | --- | --- | --- | --- |
| GENTAMICIN | > 64 | 8 | 0.25 | 8 | 0.25 | 0.25 | – | – | – |
| O=C1O/C(=C\c2cc(Br)c(O)c(Br)c2)C(c2cc(Br)c(O)c(Br)c2)=C1C(=O)c1ccco1 | 64 (≈ 92.8 µM) | 64 (≈ 92.8 µM) | 32 (≈ 46.4 µM) | 128 (≈ 186 µM) | 16 (≈ 23.2 µM) | 32 (≈ 46.4 µM) | 32 (≈ 46.4 µM) | – | – |
| O=C1O/C(=C\c2cc(Br)c(O)c(Br)c2)C(c2cccs2)=C1C(=O)c1cc(Br)c(O)c(Br)c1 | 16 (≈ 22.7 µM) | 8 (≈ 11.3 µM) | 8 (≈ 11.3 µM) | 16 (≈ 22.7 µM) | 8 (≈ 11.3 µM) | 8 (≈ 11.3 µM) | 16 (≈ 22.7 µM) | – | – |
| O=C1O/C(=C\c2ccc(O)c(Br)c2)C(c2ccc(O)c(Br)c2)=C1C(=O)c1ccc(O)c(Br)c1 | 8 (≈ 12.6 µM) | 32 (≈ 50.2 µM) | 8 (≈ 12.6 µM) | 16 (≈ 25.1 µM) | 8 (≈ 12.6 µM) | 16 (≈ 25.1 µM) | 8 (≈ 12.6 µM) | Non-Toxic | – |
| CN[C@H](CC(C)C)C(=O)N[C@H]1C(=O)N[C@@H](CC(N)=O)C(=O)N[C@H]2C(=O)N[C@H]3C(=O)N[C@H](C(=O)N[C@H](C(=O)O)c4cc(O)cc(O)c4-c4cc3ccc4O)[C@H](O)c3ccc(c(Cl)c3)Oc3cc2cc(c3O[C@@H]2O[C@H](CO)[C@@H](O)[C@H](O)[C@H]2O[C@H]2C[C@](C)(N)[C@H](O)[C@H](C)O2)Oc2ccc(cc2Cl)[C@H]1O [VANCOMYCIN] | – | > 64 | ≤ 0.13 | – | – | 0.5 (≈ 0.345 µM) | – | – | – |
| CCCN1C(=O)C(C(=O)c2ccco2)=C(c2ccc(O)c(Br)c2)C1=Cc1ccc(O)c(Br)c1 (mixture of isomers) | 16 | 16 | 16 | 16 | 4 | 8 | 8 | – | 55.7 |
| O=C1O/C(=C\c2c[nH]c3ccccc23)C(c2ccc(O)c(Br)c2)=C1C(=O)c1ccc(O)c(Br)c1 | 4 (≈ 6.88 µM) | 8 (≈ 13.8 µM) | 8 (≈ 13.8 µM) | 8 (≈ 13.8 µM) | 4 (≈ 6.88 µM) | 8 (≈ 13.8 µM) | 2 (≈ 3.44 µM) | Non-Toxic | – |
| O=C1O/C(=C\c2ccco2)C(c2ccc(O)c(Br)c2)=C1C(=O)c1ccc(O)c(Br)c1 | 64 (≈ 120 µM) | 128 (≈ 241 µM) | 32 (≈ 60.1 µM) | 128 (≈ 241 µM) | 32 (≈ 60.1 µM) | 32 (≈ 60.1 µM) | 32 (≈ 60.1 µM) | – | – |
| O=C1O/C(=C\c2cccs2)C(c2cc(Br)c(O)c(Br)c2)=C1C(=O)c1cc(Br)c(O)c(Br)c1 | 256 (≈ 363 µM) | 32 (≈ 45.3 µM) | 128 (≈ 181 µM) | 64 (≈ 90.7 µM) | 64 (≈ 90.7 µM) | 32 (≈ 45.3 µM) | 32 (≈ 45.3 µM) | – | – |
| O=C1O/C(=C\c2ccc(O)c(Br)c2)C(c2ccc(O)c(Br)c2)=C1C(=O)c1cccs1 | 16 (≈ 29.2 µM) | 32 (≈ 58.4 µM) | 8 (≈ 14.6 µM) | 32 (≈ 58.4 µM) | 4 (≈ 7.3 µM) | 8 (≈ 14.6 µM) | 8 (≈ 14.6 µM) | – | – |
| O=C1O/C(=C\c2ccc(O)c(Br)c2)C(c2cc(Br)c(O)c(Br)c2)=C1C(=O)c1cc(Br)c(O)c(Br)c1 [CADIOLIDE D] | 64 (≈ 80.5 µM) | 64 (≈ 80.5 µM) | 64 (≈ 80.5 µM) | 64 (≈ 80.5 µM) | 32 (≈ 40.3 µM) | 64 (≈ 80.5 µM) | 32 (≈ 40.3 µM) | – | – |
| Cn1cc(/C=C2\OC(=O)C(C(=O)c3ccc(O)c(Br)c3)=C2c2ccc(O)c(Br)c2)c2ccccc21 | 8 (≈ 13.4 µM) | 8 (≈ 13.4 µM) | 2 (≈ 3.36 µM) | 16 (≈ 26.9 µM) | 2 (≈ 3.36 µM) | 4 (≈ 6.72 µM) | 2 (≈ 3.36 µM) | Non-Toxic | – |
| O=C1O/C(=C\c2ccco2)C(c2cc(Br)c(O)c(Br)c2)=C1C(=O)c1ccco1 | 128 (≈ 253 µM) | 256 (≈ 506 µM) | 256 (≈ 506 µM) | 256 (≈ 506 µM) | 128 (≈ 253 µM) | 256 (≈ 506 µM) | 64 (≈ 126 µM) | – | – |
| O=C1O/C(=C\c2cccs2)C(c2ccc(O)c(Br)c2)=C1C(=O)c1cc(Br)c(O)c(Br)c1 | 32 (≈ 51 µM) | 32 (≈ 51 µM) | 32 (≈ 51 µM) | 32 (≈ 51 µM) | 8 (≈ 12.8 µM) | 4 (≈ 6.38 µM) | 8 (≈ 12.8 µM) | – | – |
| O=C1O/C(=C\c2ccco2)C(c2ccco2)=C1C(=O)c1cc(Br)c(O)c(Br)c1 | 64 (≈ 126 µM) | 64 (≈ 126 µM) | 32 (≈ 63.2 µM) | 64 (≈ 126 µM) | 16 (≈ 31.6 µM) | 32 (≈ 63.2 µM) | 16 (≈ 31.6 µM) | – | – |
| O=C1O/C(=C\c2cc(Br)c(O)c(Br)c2)C(c2ccco2)=C1C(=O)c1cc(Br)c(O)c(Br)c1 | 64 (≈ 92.8 µM) | 64 (≈ 92.8 µM) | 16 (≈ 23.2 µM) | 32 (≈ 46.4 µM) | 16 (≈ 23.2 µM) | 16 (≈ 23.2 µM) | 32 (≈ 46.4 µM) | – | – |
